Measured values from patent publication EP4445957A1, “ANTIBACTERIAL COVALENT PEPTIDE INHIBITORS” (priority 2023, dated 2024).
Read-outs that look alike come from different tables or passages of the source. Square brackets hold non-standard residues; d marks the D form. Peptide text beside a SMILES is read from it. * marks the point of attachment. Cha = N[C@@H](CC1CCCCC1)C(=O)O; Crotonyl(E) = C/C=C/C(=O)*; Dap = NC[C@H](N)C(=O)O; Acryloyl = C=CC(=O)*; BrAc = O=C(CBr)*; ClAc = O=C(CCl)*; X1 = CC#CC(=O)*

Legend:
[1] = molecular target: EcwtSC (Escherichia coli, UniProt P0A988); experiment: Isothermal Titration Calorimetry (ITC/kinITC), wild-type sliding clamp; format: binding, E. coli
EcwtSC, sequence (P0A988 whole entry): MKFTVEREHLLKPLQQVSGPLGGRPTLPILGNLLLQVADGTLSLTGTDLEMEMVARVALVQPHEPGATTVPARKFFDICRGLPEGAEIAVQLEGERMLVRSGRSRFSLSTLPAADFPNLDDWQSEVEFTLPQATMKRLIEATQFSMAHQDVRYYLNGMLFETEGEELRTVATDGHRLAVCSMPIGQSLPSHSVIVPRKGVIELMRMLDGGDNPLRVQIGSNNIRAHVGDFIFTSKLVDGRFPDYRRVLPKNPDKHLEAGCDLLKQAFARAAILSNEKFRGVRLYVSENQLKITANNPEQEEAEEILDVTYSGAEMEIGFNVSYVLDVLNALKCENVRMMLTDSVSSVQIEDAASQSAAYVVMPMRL
Experimental: ITC experiments were performed using an iTC200 or a PEAQ-ITC instrument (Microcal Malvern Panalytical). […] Data were corrected for the heat of injection by subtracting the signal of the titration of peptides into protein-free buffer solution either R1 buffer ([4-(2-hydroxyethyl)piperazine-1-ethanesulfonic acid (HEPES) 10 mM pH 7.4, NaCl 0.15 M, EDTA 3 mM] or AcNH4 pH7.4, 150 mM). Each titration was performed at least twice: the exact number of the experiments performed with each peptide is indicated in Tables 1-6. Reported data are mean values (± SD) of all experiments. Analyses of the experimental data were performed, following a classical treatment with AFFINImeter software (https://www.affinimeter.com; S4S, Santiago de Compostela, Spain). In addition, kinetic information was obtained in some cases with kinITC as implemented in software AFFINImeter (D. Burnouf et al., J. Am. Chem. Soc. 2012, 134, 559-565; and P. Dumas et al., in Methods Enzymol., Elsevier, 2016, pp. 157-180).

[2] = molecular target: EcH175GSC (Escherichia coli, UniProt P0A988, H175G); experiment: Isothermal Titration Calorimetry (ITC/kinITC), H175G mutant sliding clamp; format: binding, E. coli; details: for ΔΔH (ΔH reduction): H175G SC mutant compared to EcwtSC, 25 °C; for ΔΔH (ΔH reduction) / -TΔS / ΔG / ΔH: R1 buffer; for -TΔS / ΔG / ΔH: 25 °C (298.15K)
EcH175GSC, sequence (P0A988 whole entry H175G): as the sequence (P0A988 whole entry) above, with H175G counted along it
Experimental: ITC experiments were performed using an iTC200 or a PEAQ-ITC instrument (Microcal Malvern Panalytical). Peptides (300 or 600 µM) were titrated at 25 °C by sequential injections (usually 2 µL each) into an SC solution (30 or 60 µM). Data were corrected for the heat of injection by subtracting the signal of the titration of peptides into protein-free buffer solution either R1 buffer ([4-(2-hydroxyethyl)piperazine-1-ethanesulfonic acid (HEPES) 10 mM pH 7.4, NaCl 0.15 M, EDTA 3 mM] or AcNH4 pH7.4, 150 mM). Each titration was performed at least twice: the exact number of the experiments performed with each peptide is indicated in Tables 1-6. Reported data are mean values (± SD) of all experiments. Analyses of the experimental data were performed, following a classical treatment with AFFINImeter software (https://www.affinimeter.com; S4S, Santiago de Compostela, Spain). In addition, kinetic information was obtained in some cases with kinITC as implemented in software AFFINImeter (D. Burnouf et al., J. Am. Chem. Soc. 2012, 134, 559-565; and P. Dumas et al., in Methods Enzymol., Elsevier, 2016, pp. 157-180).

[3] = molecular target: T1, EcSC (Escherichia coli, UniProt P0A988); experiment: Covalent adduct formation monitored by mass spectrometry, kinetic constants kinact; format: biochemical, E. coli; details: for formation of covalent adducts: reaction monitored by mass spectrometry
T1 construct: compatible with the molecular weight of ^EcSC monomer (40.6 kDa); endogenous in cells; host or cells: E. coli whole cell lysate
T1 sequence (P0A988 whole entry): as the sequence (P0A988 whole entry) above
Experimental: We consider the following two-steps reaction model to describe the binding of the peptide to SC and the covalent bond formation to the His 175 residue: • First step: the peptides bind reversibly to the SC binding site • Second: the formation of the covalent bond. [drawing 31]
Overall, no major effect of the incorporation of the warheads on the binding affinity was observed on the whole series of the TCls. […] Then, kinetic constants (kinact) of compounds 1 and 2 were determined at 22°C and 37°C (Table 7, entries 4 and 7).

[4] = buffer AcNH4 pH 7.4, 150 mM, 295.15 K (22 °C), read-out: KD
[5] = buffer AcNH4 pH 7.4, 150 mM, 310.15 K (37 °C), read-out: KD
[6] = buffer AcNH4 pH 7.4, 150 mM, 295.15 K (22 °C)
[7] = buffer AcNH4 pH 7.4, 150 mM, 310.15 K (37 °C)
[8] = buffer R1 (X 1), 295.15 K (22 °C)
[9] = buffer R1 (X 1), 310.15 K (37 °C)

SMILES	Kd [1, 4]	Kd [1, 5]	-TΔS ([1]; R1 buffer, 25 °C (298.15K))	ΔG ([1]; R1 buffer, 25 °C (298.15K))	ΔH ([1]; R1 buffer, 25 °C (298.15K))	-TΔS [1, 6]	ΔG [1, 6]	ΔH [1, 6]	-TΔS [1, 7]	ΔG [1, 7]	ΔH [1, 7]	-TΔS [1, 8]	ΔG [1, 8]	ΔH [1, 8]	-TΔS [1, 9]	ΔG [1, 9]	ΔH [1, 9]	ΔΔH (ΔH reduction) [2]	-TΔS [2]	ΔG [2]	other results
CC(=O)N[C@@H](CCC(N)=O)C(=O)N[C@@H](CC1CCCCC1)C(=O)N[C@@H](CNC(=O)CBr)C(=O)N[C@@H](CC(C)C)C(=O)N[C@@H](Cc1ccccc1)C(=O)O [Peptide 4, Ac-Gln-Cha-Dap(bromoacetamide)-Leu-Phe-OH] (Ac-Q[Cha][Dap](BrAc)LF-OH)	111 nM	281 nM	–	–	–	–	–	–	–	–	–	–	–	–	–	–	–	–	–	–	Kd ([1]; KD (nM) at 22 °C (AcONH4 buffer), Table 7, 22 °C, AcONH4 buffer): 111 ± 17 nM; Kd ([1]; KD (nM) at 25°C (Hepes buffer), Table 7, 25°C, Hepes buffer): 139 ± 54 nM; Kd ([1]; KD (nM) at 37 °C (AcONH4 buffer), Table 7, 37 °C, AcONH4 buffer): 281 ± 62 nM; Kd ([1]; R1 buffer, 25 °C (298.15K), read-out: KD): 141 nM; Kd ([1]; buffer R1 (X 1), 295.15 K (22 °C), read-out: KD): 96.4 nM; Kd ([1]; buffer R1 (X 1), 310.15 K (37 °C), read-out: KD): 273 nM; Kd [2]: 730 nM
CC(=O)N[C@@H](CCC(N)=O)C(=O)N[C@@H](CC1CCCCC1)C(=O)N[C@@H](CNC(=O)CCl)C(=O)N[C@@H](CC(C)C)C(=O)N[C@@H](Cc1ccccc1)C(=O)O [Peptide 2, Ac-Gln-Cha-Dap(chloroacetamide)-Leu-Phe-OH] (Ac-Q[Cha][Dap](ClAc)LF-OH)	–	580 nM	2.5 (± 0.4) kcal/mol	-9.2 (± 0.1) kcal/mol	-11.7 (± 0.4) kcal/mol	1.7 (± 1.5) kcal/mol	-9.2 (± 0.1) kcal/mol	-10.9 (± 1.5) kcal/mol	8.1 (± 3.0) kcal/mol	-8.9 (± 0.4) kcal/mol	-16.9 (± 2.7) kcal/mol	-0.3 (± 0.1) kcal/mol	-9.31 (± 0.03) kcal/mol	-8.9 (± 0.1) kcal/mol	2.3 (± 0.9) kcal/mol	-9.03 (± 0.23) kcal/mol	-11.3 (± 0.8) kcal/mol	3.2 kcal/mol	1.2 (±0.1) kcal/mol	-8.3 (±0.08) kcal/mol	Kd ([1]; read-out: KD (nM) at 22 °C (AcONH4 buffer), Table 7, 22 °C, AcONH4 buffer): 146 ± 20 nM; ΔH [2]: -9.6 (±0.1) kcal/mol; kinact (M^-1. s^-1) at 37 °C (AcONH4 buffer) ([3]; 37 °C, AcONH4 buffer, second-order rate constant): 1.04 ± 0.01 M⁻¹ s⁻¹; formation of covalent adducts [3]: form covalent adducts
C=CC(=O)NC[C@H](NC(=O)[C@H](CC1CCCCC1)NC(=O)[C@H](CCC(N)=O)NC(C)=O)C(=O)N[C@@H](CC(C)C)C(=O)N[C@@H](Cc1ccccc1)C(=O)O [Peptide 1, Ac-Gln-Cha-Dap(acrylamide)-Leu-Phe-OH] (Ac-Q[Cha][Dap](Acryloyl)LF-OH)	153 nM	482 nM	3.7 (± 0.02) kcal/mol	-9.2 (± 0.07) kcal/mol	-12.8 (± 0.08) kcal/mol	2.3 (± 0.7) kcal/mol	-9.3 (± 0.3) kcal/mol	-11.5 (± 0.5) kcal/mol	6.9 (± 1.1) kcal/mol	-8.9 (± 0.1) kcal/mol	-15.9 (± 1.2) kcal/mol	2.1 (± 0.2) kcal/mol	-9.4 (± 0.2) kcal/mol	-11.4 (± 0.4) kcal/mol	4.9 (± 1.1) kcal/mol	-9.04 (± 0.26) kcal/mol	-13.9 (± 0.8) kcal/mol	2.1 kcal/mol	3.3 (±0.7) kcal/mol	-8.3 (±0.1) kcal/mol	ΔH [2]: -11.6 (±0.6) kcal/mol; formation of covalent adducts [3]: form covalent adducts
CC#CC(=O)NC[C@H](NC(=O)[C@H](CC1CCCCC1)NC(=O)[C@H](CCC(N)=O)NC(C)=O)C(=O)N[C@@H](CC(C)C)C(=O)N[C@@H](Cc1ccccc1)C(=O)O [Peptide 5, Ac-Gln-Cha-Dap(but-2-ynamide)-Leu-Phe-OH] (Ac-Q[Cha][Dap](X1)LF-OH)	–	–	2.1 (± 0.1) kcal/mol	-9.8 (± 0.1) kcal/mol	-11.8 (± 0.06) kcal/mol	–	–	–	–	–	–	2.7 (± 1.2) kcal/mol	-10.5 (± 0.2) kcal/mol	-13.1 (± 1.2) kcal/mol	6.9 (± 0.4) kcal/mol	-10.12 (± 0.03) kcal/mol	-17.0 (± 0.4) kcal/mol	2.0 kcal/mol	0.04 (±0.3) kcal/mol	-9.7 (±0.1) kcal/mol	ΔH [2]: -9.7 (±0.2) kcal/mol
C/C=C/C(=O)NC[C@H](NC(=O)[C@H](CC1CCCCC1)NC(=O)[C@H](CCC(N)=O)NC(C)=O)C(=O)N[C@@H](CC(C)C)C(=O)N[C@@H](Cc1ccccc1)C(=O)O [Peptide 3, Ac-Gln-Cha-Dap(but-2-enamide)-Leu-Phe-OH] (Ac-Q[Cha][Dap](Crotonyl(E))LF-OH)	212 nM	–	1.1 (± 0.1) kcal/mol	-9.25 (± 0.01) kcal/mol	-10.4 (± 0.1) kcal/mol	0.79 (± 0.52) kcal/mol	-9.02 (± 0.2) kcal/mol	-9.81 (± 0.4) kcal/mol	6.31 (±0.02) kcal/mol	-8.97 (± 0.06) kcal/mol	-15.3 (± 0.1) kcal/mol	1.8 (± 0.4) kcal/mol	-9.7 (± 0.2) kcal/mol	-11.7 (± 0.6) kcal/mol	5.8 (± 1) kcal/mol	-9.1 (± 0.2) kcal/mol	-14.8 (± 0.8) kcal/mol	–	–	–	Kd ([1]; read-out: KD (nM) at 37 °C (AcONH4 buffer), Table 7, 37 °C, AcONH4 buffer): 475 ± 47 nM
